Read-outs that look alike come from different tables or passages of the source.
What was measured:
[1] = Cytostatic assay (MTS/PMS) in Huh 7.5.1 cells; assay type: cell-based; conditions: human
Experimental: (§1) Cells were seeded at a density of 5×10^3 or 7.2×10^3 cells per well in a 96-well plate in complete DMEM in serial dilutions of the test compounds for Huh 5-2 and Huh 7.5.1 cells, respectively. After three days of incubation, cell viability was determined by MTS/PMS method (Promega).

[2] = test system: HCV replicons I389luc-ubi-neo/NS3-3′/5.1 (Huh 5-2), genotype 1b subgenomic replicon; test: Antiviral assay in HCV replicon cells (Huh 5-2, firefly luciferase); assay type: cell-based, hepatitis C virus (HCV); conditions: for EC50: Hepatitis C virus, read-out: EC50 (50% effective concentration), HCV replicon replication, Huh 5-2 subgenomic replicon (genotype 1b), firefly luciferase, mean ± SD, four independent experiments; for fold-change of EC50 with Hemin (5 µM) (value between brackets): Huh 5-2 replicon, potentiation by Hemin 5 µM
Experimental: Cells carrying HCV replicons I389luc-ubi-neo/NS3-3′/5.1 (Huh 5-2) were kindly provided by Prof. R. Bartenschlager (University of Heidelberg, Germany). Cells were cultured in Dulbecco’s modified Eagle’s Medium (DMEM, Gibco, Merelbeke, Belgium) supplemented with 10% heat-inactivated fetal bovine serum (Integro, Zaandam, The Netherlands), 1× non-essential amino acids, 100 IU/mL penicillin (Gibco), 100 µg/mL streptomycin (Gibco), and 250 µg/mL G418. Cell cultures were maintained at 37°C with 5% CO2.
(§2) The antiviral assay was performed as described, [22]. Briefly, cells were seeded at a density of 5×10^3 cells per well in 96-well cell culture plates in DMEM containing 250 µg/mL G418 at 37°C (5% CO2). After 24 hours of incubation, medium was replaced with fresh DMEM (without G418) and serial dilutions of the test compounds. Replicon RNA levels were determined by a quantitative reverse transcription polymerase chain reaction (qRT-PCR) or quantified by measuring the firefly luciferase activity in 96-well cell culture plates (Safire, Tecan, Austria).

[3] = test system: infectious HCV JFH-1/CS-N6 in Huh 7.5.1 cells; test: microbe, parasite or virus in culture; assay type: cell-based, hepatitis C virus (HCV); conditions: for SI: HCVcc system, CC50/EC50; for EC50: 3 days, qRT-PCR, mean ± SD, four independent experiments
Experimental: The highly infectious HCV JFH-1/CS-N6 described by Delgrange et al was used for the antiviral assays. A total of 7.2×10^3 Huh 7.5.1 cells per well of a 96-well cell culture plate were incubated with the virus at specific infectivity of about 400 (400 HCV RNA copies per foci-forming unit) and at the same time with serial dilutions of compounds. Following 3 days of incubation, medium was removed and cells were washed once and lysed to extract the intracellular RNA with the RNeasy kit (Qiagen). HCV RNA was quantified by means of qRT-PCR [25].
A qRT-PCR mixture contained: cellular RNA extract, HCV JFH-1 forward primer SF-JFH86 [5′-[…]-3′], reverse primer SR-JFH194 [5′-[…]-3′], and probe [5′-FAM-[…]-TAMRA-3′], was performed at 50°C for 30 min, subsequent 15 min at 95°C and PCR amplification of 40 cycles of denaturation at 94°C for 20 s and annealing and extension at 60°C for 1 min in an ABI 7500 Taqman (Live Technologies).

[4] = Cytostatic assay (MTS/PMS) in Huh 5-2 cells; assay type: cell-based; conditions: human, three days
Experimental: as §1

[5] = test system: Huh 7.5.1 cells; test: Cytostatic assay (MTS/PMS) in Huh 7.5.1 cells; assay type: cell-based
Experimental: as §1

[6] = test system: HCV replicon in Huh 5-2 cells; test: Drug combination studies (checker-board, Prichard and Shipman) in the HCV replicon system; assay type: cell-based, hepatitis C virus (HCV); conditions: Figure S2
Experimental: as §2
The effects of drug combinations were evaluated in a checker-board format using the method of Prichard and Shipman. The theoretical additive effect was calculated from the dose–response curves of individual compounds by the equation Z = X+Y(1−X), where X represents the inhibition produced by first compound alone and Y the inhibition by the second compound alone. Z represents the effect produced by the combination of the first with the second compound. The theoretical additive surface is subtracted from the actual experimental surface, resulting in a horizontal surface that equals the zero plane when the combination is additive. A surface that lies above the zero plane indicates a synergistic effect of the combination, and a surface below the zero plane indicates an antagonism. […]

[7] = Huh 7.5.1 hepatoma cells, three days, MTS/PMS
[8] = Hepatitis C virus, Huh-7.5.1, 72 h, read-out: EC50 (50% effective concentration), replication of HCVcc, infectious HCV JFH-1 in Huh 7.5.1
[9] = read-out: EC50 (50% effective concentration), replication of HCVcc, infectious HCV JFH-1 in Huh 7.5.1

## C[C@@H]1CCC2[C@@H](C)[C@H](OCc3ccc(CO)cc3)OC3O[C@@]4(C)CCC1[C@]32OO4 (some centres unmarked) [AJ-001]
[1]; [7]
  CC50 at 3 days: > 133 µM
[2]
  EC50: 8.8 ± 2.7 µM
  fold-change of EC50 with Hemin (5 µM) (value between brackets): 2 fold
[3]
  SI: > 5
[3]; [8]
  EC50: 26 ± 5 µM
[4]
  CC50 at 3 days: > 133 µM

## C[C@@H]1CCC2[C@@H](C)[C@H](OCc3ccc(C=O)cc3)OC3O[C@@]4(C)CCC1[C@]32OO4 (some centres unmarked) [AJ-002]
[1]; [7]
  CC50 at 3 days: > 133 µM
[2]
  EC50: 30 ± 8 µM
  fold-change of EC50 with Hemin (5 µM) (value between brackets): 15 fold
[3]
  SI: > 8
[3]; [8]
  EC50: 15 ± 2 µM
[4]
  CC50 at 3 days: > 133 µM

## CC1CCC2C(C)C(OCc3ccc(COC4OC5OC6(C)CCC7C(C)CCC(C4C)C57OO6)cc3)OC3OC4(C)CCC1C32OO4 (centres unmarked) [AJ-004]
[1]; [7]
  CC50 at 3 days: > 133 µM
[2]
  EC50: 3.2 ± 2.4 µM
[2]; subgenomic replicon system
  fold more efficient in inhibiting HCV replicon replication compared to the monomer AJ-001: ~3 fold
  fold more potent than the monomer AJ-002: ~10 fold
[3]
  SI: > 8
[3]; [8]
  EC50: 16 ± 4 µM
[4]
  CC50 at 3 days: > 133 µM

## C[C@@H]1CC[C@H]2[C@@H](C)C(=O)O[C@@H]3O[C@@]4(C)CC[C@@H]1[C@]32OO4 [ART, Artemisinin, reference compound]
[5]; 400 µM, HCVcc system cells
  host cell proliferation and cell viability at the highest concentration tested: not affected
[1]; [7]
  CC50 at 3 days: > 400 µM
[2]
  EC50: 75 ± 7 µM
  fold-change of EC50 with Hemin (5 µM) (value between brackets): 8 fold
[3]
  SI: > 2
[3]; Hemin at 5 µM
  potentiation of antiviral activity by Hemin in the HCVcc system: 2 fold
[3]; [8]
  EC50: 167 ± 38 µM
[4]
  CC50 at 3 days: > 400 µM
[6]
  effect of the combination with TEMPO: marginaly antagonistic effect

## CO[C@H]1O[C@@H]2O[C@@]3(C)CC[C@H]4[C@H](C)CC[C@@H]([C@H]1C)[C@@]24OO3 [Artemether]
[1]; [7]
  CC50 at 3 days: < 6 µM

## C[C@H]1[C@H](OC(=O)CCC(=O)O)O[C@@H]2O[C@@]3(C)CC[C@H]4[C@H](C)CC[C@@H]1[C@@]24OO3 [Artesunate]
[1]; [7]
  CC50 at 3 days: < 6 µM

## C[C@H]1[C@@H](O)O[C@@H]2O[C@@]3(C)CC[C@H]4[C@H](C)CC[C@@H]1[C@@]24OO3 [Dihydroartemisinin]
[1]; [7]
  CC50 at 3 days: < 6 µM

## CC(=O)N[C@@H](CS)C(=O)O [L-NAC, L-N-acetylcysteine, reference compound]
[3]; L-NAC alone at the concentration tested, printed as HCVcc replication
  HCV RNA replication with L-NAC alone: 98 % of UTC

## CC1(C)CCCC(C)(C)N1[O] [TEMPO, 2,2,6,6-tetramethyl-1-piperidinyloxy, reference compound]
[2]; HCV replicon system, concentrations up to 200 µM
  effect of TEMPO alone on the replication of HCV: no effect

## CC(=O)OC1OC2OC3(C)CCC4C(C)CCC(C1C)C24OO3 (centres unmarked) [TVN2]
[2]
  EC50: 25 ± 13 µM
  fold-change of EC50 with Hemin (5 µM) (value between brackets): +4 fold
[3]; [8]
  EC50: > 70 µM
[4]
  CC50 at 3 days: 36 ± 7 µM

## C=COC1OC2OC3(C)CCC4C(C)CCC(C1C)C24OO3 (centres unmarked) [TVN4]
[1]; [7]
  CC50 at 3 days: > 133 µM
[2]
  EC50: 36 ± 16 µM
  fold-change of EC50 with Hemin (5 µM) (value between brackets): +2 fold
[3]
  SI: > 2
[3]; [8]
  EC50: 59 ± 6 µM
[3]; [9]
  EC50: 52 ± 6 µM
[4]
  CC50 at 3 days: 123 ± 14 µM
[6]
  effect of the combination with TEMPO: marginaly antagonistic effect

## CC1CCC2C(C)C(OC(=O)c3ccccc3)OC3OC4(C)CCC1C32OO4 (centres unmarked) [TVN6]
[2]
  EC50: 3.6 ± 2.3 µM
[3]; [8]
  EC50: > 70 µM
[4]
  CC50 at 3 days: 40 ± 20 µM

## CCC[C@H](NC(=O)[C@@H]1[C@H]2CCC[C@H]2CN1C(=O)[C@@H](NC(=O)[C@@H](NC(=O)c1cnccn1)C1CCCCC1)C(C)(C)C)C(=O)C(=O)NC1CC1 [VX-950, reference compound]
[1]
  CC50 at 3 days: > 10 µM
[3]
  SI: > 50
[3]; [8]
  EC50: 0.2 ± 0.1 µM

## Hemin [reference compound]
[5]; Hemin alone
  concentration not toxic to Huh 7.5.1: > 50 µM
[3]; [9]
  EC50: 8 ± 0.6 µM
